Data: PubChem BioAssay (NCI)
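Method: 48-hour compound exposure of cells in 96-well plates, five concentrations, linear interpolation of endpoints. The concentration for full growth arrest is given as TGI.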

How the values were obtained:
Assay in all cases: NCI anticancer screen, dose series, 48 h
[1] = test system: CAKI-1 renal
[2] = test system: SK-MEL-28 melanoma
[3] = test system: NCI-H460 lung
[4] = test system: PC-3 prostate
[5] = test system: MOLT-4 leukemia
[6] = test system: UACC-257 melanoma
[7] = test system: TK-10 renal
[8] = test system: NCI-H23 lung
[9] = test system: HCT-116 colon
[10] = test system: LOX IMVI melanoma
[11] = test system: OVCAR-3 ovarian
[12] = test system: SNB-75 CNS
[13] = test system: SK-MEL-5 melanoma
[14] = test system: K-562 leukemia
[15] = test system: HCC-2998 colon
[16] = test system: SF-268 CNS
[17] = test system: OVCAR-5 ovarian
[18] = test system: HT29 colon
[19] = test system: UO-31 renal
[20] = test system: SK-MEL-2 melanoma
[21] = test system: SK-OV-3 ovarian
[22] = test system: A549 NSCLC
[23] = test system: NCI/ADR-RES ovarian
[24] = test system: MALME-3M melanoma
[25] = test system: SN12C renal
[26] = test system: SF-539 CNS
[27] = test system: RPMI-8226 leukemia
[28] = test system: CCRF-CEM leukemia
[29] = test system: KM12 colon
[30] = test system: OVCAR-8 ovarian
[31] = test system: SR leukemia
[32] = test system: A498 renal
[33] = test system: MDA-N
[34] = test system: ACHN renal
[35] = test system: U251 CNS
[36] = test system: HL-60(TB) leukemia
[37] = test system: OVCAR-4 ovarian
[38] = test system: 786-0 renal
[39] = test system: COLO 205 colon
[40] = test system: T-47D breast
[41] = test system: SF-295 CNS
[42] = test system: HS 578T breast
[43] = test system: MDA-MB-231 breast
[44] = test system: HOP-92 NSCLC
[45] = test system: EKVX NSCLC
[46] = test system: IGROV1 ovarian
[47] = test system: HCT-15 colon
[48] = test system: SNB-19 CNS
[49] = test system: SW-620 colon
[50] = test system: MCF7 breast
[51] = test system: DU-145 prostate
[52] = test system: M14 melanoma
[53] = test system: RXF 393 renal
[54] = test system: NCI-H226 lung
[55] = test system: BT-549 breast
[56] = test system: UACC-62 melanoma
[57] = test system: MDA-MB-435
[58] = test system: HOP-62 NSCLC

Q: `C/C(Cl)=N\OC(=O)Nc1ccccc1C(F)(F)F` was tested. Which TGI [1] did it give?
A: > 100 µM

Q: What about the TGI [2] of the same compound?
A: 42.3 µM

Q: And the TGI [3]?
A: > 100 µM

Q: What about the TGI [4] of the same compound?
A: > 100 µM

Q: What about the TGI [5] of the same compound?
A: 47.9 µM

Q: What about the TGI [6] of the same compound?
A: > 100 µM

Q: What about the TGI [7] of the same compound?
A: 28.8 µM

Q: What about the TGI [8] of the same compound?
A: > 100 µM

Q: And the TGI [9]?
A: > 100 µM

Q: And the TGI [10]?
A: 29.2 µM

Q: And the TGI [11]?
A: 29.2 µM

Q: And the TGI [12]?
A: > 100 µM

Q: And the TGI [13]?
A: > 100 µM

Q: And the TGI [14]?
A: 40.3 µM

Q: And the TGI [15]?
A: > 100 µM

Q: What about the TGI [16] of the same compound?
A: > 100 µM

Q: What about the TGI [17] of the same compound?
A: > 100 µM

Q: What about the TGI [18] of the same compound?
A: 34.7 µM

Q: And the TGI [19]?
A: > 100 µM

Q: And the TGI [20]?
A: > 100 µM

Q: What about the TGI [21] of the same compound?
A: > 100 µM

Q: And the TGI [22]?
A: > 100 µM

Q: And the TGI [23]?
A: 47.5 µM

Q: And the TGI [24]?
A: 48.1 µM

Q: And the TGI [25]?
A: > 100 µM

Q: And the TGI [26]?
A: > 100 µM

Q: What about the TGI [27] of the same compound?
A: 45.2 µM

Q: What about the TGI [28] of the same compound?
A: 53 µM

Q: And the TGI [29]?
A: > 100 µM

Q: What about the TGI [30] of the same compound?
A: > 100 µM

Q: And the TGI [31]?
A: 44.9 µM

Q: What about the TGI [32] of the same compound?
A: > 100 µM

Q: And the TGI [33]?
A: 31.7 µM

Q: And the TGI [34]?
A: 35.2 µM

Q: What about the TGI [35] of the same compound?
A: > 100 µM

Q: What about the TGI [36] of the same compound?
A: 15.5 µM

Q: And the TGI [37]?
A: 26.9 µM

Q: What about the TGI [38] of the same compound?
A: 38.6 µM

Q: And the TGI [39]?
A: 43.6 µM

Q: And the TGI [40]?
A: > 100 µM

Q: What about the TGI [41] of the same compound?
A: > 100 µM

Q: And the TGI [42]?
A: > 100 µM

Q: What about the TGI [43] of the same compound?
A: 46.9 µM

Q: What about the TGI [44] of the same compound?
A: 19 µM

Q: What about the TGI [45] of the same compound?
A: 57.6 µM

Q: And the TGI [46]?
A: > 100 µM

Q: What about the TGI [47] of the same compound?
A: > 100 µM

Q: What about the TGI [48] of the same compound?
A: > 100 µM

Q: And the TGI [49]?
A: 36.1 µM

Q: What about the TGI [50] of the same compound?
A: 61.5 µM

Q: What about the TGI [51] of the same compound?
A: > 100 µM

Q: For `CC1(C)OCC2OC3([C@H](O)CCO)OC(C)(C)OC3C2O1` (stereo partly drawn), which TGI [1] is on record?
A: > 100 µM

Q: And the TGI [2]?
A: > 100 µM

Q: And the TGI [52]?
A: > 100 µM

Q: And the TGI [3]?
A: > 100 µM

Q: What about the TGI [53] of the same compound?
A: > 100 µM

Q: What about the TGI [4] of the same compound?
A: > 100 µM

Q: And the TGI [5]?
A: > 100 µM

Q: What about the TGI [6] of the same compound?
A: > 100 µM

Q: What about the TGI [8] of the same compound?
A: > 100 µM

Q: What about the TGI [9] of the same compound?
A: > 100 µM

Q: And the TGI [10]?
A: > 100 µM

Q: And the TGI [11]?
A: > 100 µM

Q: And the TGI [12]?
A: > 100 µM

Q: What about the TGI [13] of the same compound?
A: > 100 µM

Q: And the TGI [14]?
A: > 100 µM

Q: And the TGI [54]?
A: > 100 µM

Q: And the TGI [15]?
A: > 100 µM

Q: What about the TGI [17] of the same compound?
A: > 100 µM

Q: What about the TGI [18] of the same compound?
A: > 100 µM

Q: And the TGI [19]?
A: > 100 µM

Q: And the TGI [20]?
A: > 100 µM

Q: What about the TGI [22] of the same compound?
A: > 100 µM

Q: And the TGI [23]?
A: > 100 µM

Q: And the TGI [25]?
A: > 100 µM

Q: What about the TGI [26] of the same compound?
A: > 100 µM

Q: And the TGI [27]?
A: > 100 µM

Q: What about the TGI [28] of the same compound?
A: > 100 µM

Q: And the TGI [55]?
A: > 100 µM

Q: And the TGI [29]?
A: > 100 µM

Q: What about the TGI [30] of the same compound?
A: > 100 µM

Q: What about the TGI [31] of the same compound?
A: > 100 µM

Q: And the TGI [32]?
A: > 100 µM

Q: What about the TGI [33] of the same compound?
A: > 100 µM

Q: And the TGI [34]?
A: > 100 µM

Q: What about the TGI [56] of the same compound?
A: > 100 µM

Q: What about the TGI [35] of the same compound?
A: > 100 µM

Q: And the TGI [57]?
A: > 100 µM

Q: And the TGI [37]?
A: > 100 µM

Q: What about the TGI [38] of the same compound?
A: > 100 µM

Q: What about the TGI [39] of the same compound?
A: > 100 µM

Q: What about the TGI [58] of the same compound?
A: > 100 µM

Q: And the TGI [40]?
A: > 100 µM

Q: What about the TGI [41] of the same compound?
A: > 100 µM

Q: And the TGI [43]?
A: > 100 µM

Q: What about the TGI [44] of the same compound?
A: > 100 µM

Q: And the TGI [45]?
A: > 100 µM

Q: What about the TGI [46] of the same compound?
A: > 100 µM

Q: What about the TGI [47] of the same compound?
A: > 100 µM

Q: And the TGI [48]?
A: > 100 µM

Q: What about the TGI [49] of the same compound?
A: > 100 µM

Q: What about the TGI [50] of the same compound?
A: > 100 µM

Q: And the TGI [51]?
A: > 100 µM
